Results: US8895733B2 (Novartis AG, priority 2010, dated 2014)
Like-named read-outs stand apart in the source and are kept apart here.

Molecular target: T1, Nav 1.7 (Homo sapiens, UniProt Q15858)
T1 construct: expressed in transfected cells
Experiment: Whole-cell voltage clamp electrophysiology, automated patch clamp (marker c in Table of Examples)
Type: cell-based
Details: read-out: Nav 1.7 activity
Text: a.IonWork Quattro data, b=Manual patch clamp data, c=Automated patch clamp data M=Method
Whole-Cell Voltage Clamp Electrophysiology Assay
Patch-clamp electrophysiology is considered the gold standard technique for investigation of ion channel function and pharmacology. Using this method, sodium channel currents can be measured in cells, which stably (or transiently) express the sodium channel subtype of interest. Application of compounds during such experiments provides a functional measure of the activity and potency of compounds affecting the ion channel of interest.
Electrophysiological studies can be performed using automated or manual patch-clamp techniques. Automated patch-clamp instruments suitable for this work include the Ion Works HT (MDS), Ion Works Quattro (MDS), PatchLiner (Nanion technologies), Port-A-Patch (Nanion technologies), QPatch (Sophion) or any other suitable platform.
For recording in automated patch-clamp instruments, cells expressing the voltage-gated sodium channel subtype of interest are dispensed in appropriate chips (plates with more than one recording chambers each containing one or more apertures to generate whole-cell patches), as provided by the manufacturer. Typically, the whole-cell perforated patch configuration is used for probing the pharmacology of compounds in automated patch-clamp electrophysiology on sodium channels. Extracellular and intracellular buffers for such experiments are composed according to the literature, or according to the instructions provided by the manufacturer of the instruments. Test solutions, which contain the compounds to be tested, are applied to the cells expressing the sodium channel of interest by a pipetting system, typically integrated into the robots.
A suitable voltage stimulus protocol is used to activate voltage-gated sodium channel proteins of interest. A typical stimulus protocol may consist of sweeps of sequential voltage pulses starting from a holding potential (i.e. −65 mV), to a more positive and depolarising test pulse potential (i.e. −10 mV) and finally to a more negative and hyperpolarising potential (i.e. −100 mV). According to the biophysics of the voltage-gated ion channel of interest and interest in channel configuration the voltages and durations of the pulses as well as the overall frequency of sweeps applied might vary. Accordingly, a stimulus protocol was designed to assess compounds due to their potential to block NaV1.7 channels primarily in inactivated state. Selectivity over other voltage-gated sodium channel members was assessed by protocols that reflect the native function of the channels (i.e. heart rate or firing of neurons).

[1] = marker c: Automated patch clamp data

T1 sequence (Q15858 whole entry): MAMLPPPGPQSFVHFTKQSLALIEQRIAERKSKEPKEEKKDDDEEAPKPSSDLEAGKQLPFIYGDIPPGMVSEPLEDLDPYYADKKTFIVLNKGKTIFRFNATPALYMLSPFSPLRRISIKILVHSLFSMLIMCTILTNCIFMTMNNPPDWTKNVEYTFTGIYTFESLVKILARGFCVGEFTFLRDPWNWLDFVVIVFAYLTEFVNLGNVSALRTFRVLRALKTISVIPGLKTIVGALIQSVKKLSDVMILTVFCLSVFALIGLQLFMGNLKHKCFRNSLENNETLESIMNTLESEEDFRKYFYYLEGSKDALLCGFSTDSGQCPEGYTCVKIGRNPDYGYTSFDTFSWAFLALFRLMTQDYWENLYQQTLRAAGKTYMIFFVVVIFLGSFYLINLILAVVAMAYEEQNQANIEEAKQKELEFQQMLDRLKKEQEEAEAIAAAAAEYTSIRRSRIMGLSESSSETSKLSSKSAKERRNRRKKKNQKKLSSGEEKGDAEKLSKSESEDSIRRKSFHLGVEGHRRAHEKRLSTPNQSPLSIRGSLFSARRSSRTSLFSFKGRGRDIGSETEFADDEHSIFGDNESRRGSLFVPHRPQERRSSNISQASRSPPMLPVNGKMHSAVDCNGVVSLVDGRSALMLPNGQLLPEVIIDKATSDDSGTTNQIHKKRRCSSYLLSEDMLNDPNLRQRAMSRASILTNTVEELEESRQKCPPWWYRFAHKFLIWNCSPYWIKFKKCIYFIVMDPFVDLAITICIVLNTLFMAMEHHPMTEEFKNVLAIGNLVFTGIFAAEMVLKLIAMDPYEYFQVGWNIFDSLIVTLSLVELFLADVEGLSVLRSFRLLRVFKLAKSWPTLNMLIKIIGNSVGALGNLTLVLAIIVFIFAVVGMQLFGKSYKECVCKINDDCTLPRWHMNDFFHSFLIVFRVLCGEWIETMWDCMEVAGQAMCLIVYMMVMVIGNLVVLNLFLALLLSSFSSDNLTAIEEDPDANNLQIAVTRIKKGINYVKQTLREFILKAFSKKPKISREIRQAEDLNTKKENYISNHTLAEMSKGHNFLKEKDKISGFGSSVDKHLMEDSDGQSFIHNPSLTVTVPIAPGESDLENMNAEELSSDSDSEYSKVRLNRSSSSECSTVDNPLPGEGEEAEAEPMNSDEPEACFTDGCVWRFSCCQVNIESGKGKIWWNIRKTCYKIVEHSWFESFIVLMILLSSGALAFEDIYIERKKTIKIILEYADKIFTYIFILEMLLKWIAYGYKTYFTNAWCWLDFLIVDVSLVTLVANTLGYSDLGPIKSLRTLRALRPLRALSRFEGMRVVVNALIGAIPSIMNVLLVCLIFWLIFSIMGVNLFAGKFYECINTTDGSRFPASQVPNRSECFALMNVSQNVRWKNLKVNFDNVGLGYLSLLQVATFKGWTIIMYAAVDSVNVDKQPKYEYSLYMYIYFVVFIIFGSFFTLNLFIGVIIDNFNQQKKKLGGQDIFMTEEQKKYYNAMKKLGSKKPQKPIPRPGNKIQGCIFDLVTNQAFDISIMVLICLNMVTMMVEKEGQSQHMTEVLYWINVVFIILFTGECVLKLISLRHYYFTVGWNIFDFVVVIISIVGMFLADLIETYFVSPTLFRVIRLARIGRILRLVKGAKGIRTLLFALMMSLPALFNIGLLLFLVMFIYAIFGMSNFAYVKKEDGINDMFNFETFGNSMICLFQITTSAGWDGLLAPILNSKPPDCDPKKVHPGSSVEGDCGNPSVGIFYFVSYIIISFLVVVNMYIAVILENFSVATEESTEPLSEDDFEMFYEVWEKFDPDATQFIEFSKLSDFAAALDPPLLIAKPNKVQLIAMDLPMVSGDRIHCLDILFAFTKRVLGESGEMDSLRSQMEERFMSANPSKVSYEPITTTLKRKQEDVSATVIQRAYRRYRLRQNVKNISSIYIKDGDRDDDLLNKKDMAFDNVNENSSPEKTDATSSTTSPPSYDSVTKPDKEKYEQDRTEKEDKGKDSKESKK

Structure (SMILES)	IC50 (marker c = Automated patch clamp data) [nM]	IC50 [1] [nM]
CN(c1ccccc1)c1nc(N)nc(-c2noc(C3CC(Oc4ccccc4)C3)n2)n1 (mixture of isomers) [Example 261, 2-N-Methyl-6-[5-(3-phenoxycyclobutyl)-1,2,4-oxadiazol-3-yl]-2-N-phenyl-1,3,5-triazine-2,4-diamine]	1390	–
CN(c1ccccc1)c1nc(N)nc(-c2noc(C3C[C@H]4CC[C@@H](C3)N4CCC(F)(F)F)n2)n1 (mixture of isomers) [Example 145, N-Methyl-N-phenyl-6-{5-[(1R,3R,5S)-8-(3,3,3-trifluoro-propyl)-8-aza-bicyclo[3.2.1]oct-3-yl]-[1,2,4]oxadiazol-3-yl}-[1,3,5]triazine-2,4-diamine]	–	1140
Cc1ccccc1-c1nc(-c2nc(N)nc(N(C)c3ccccc3)n2)no1 [Example 27, N-Methyl-N-phenyl-6-(5-o-tolyl-[1,2,4]oxadiazol-3-yl)-[1,3,5]triazine-2,4-diamine]	–	923
Cc1cccc(-c2nc(-c3nc(N)nc(N(C)c4ccccc4)n3)no2)c1 [Example 28, N-Methyl-N-phenyl-6-(5-m-tolyl-[1,2,4]oxadiazol-3-yl)-[1,3,5]triazine-2,4-diamine]	–	955
Cc1ccc(-c2nc(-c3nc(N)nc(N(C)c4ccccc4)n3)no2)cc1 [Example 29, N-Methyl-N-phenyl-6-(5-p-tolyl-[1,2,4]oxadiazol-3-yl)-[1,3,5]triazine-2,4-diamine]	–	1380
CC(C)N(c1ccccc1)c1nc(N)nc(-c2noc(-c3ccco3)n2)n1 [Example 30, 6-(5-Furan-2-yl-[1,2,4]oxadiazol-3-yl)-N-isopropyl-N-phenyl-[1,3,5]triazine-2,4-diamine]	–	933
CN(c1ccccc1)c1nc(N)nc(-c2noc(Cc3ccccc3)n2)n1 [Example 31, 6-(5-Benzyl-[1,2,4]oxadiazol-3-yl)-N-methyl-N-phenyl-[1,3,5]triazine-2,4-diamine]	–	363
Nc1nc(Nc2ccccc2)nc(-c2noc(-c3cc[nH]n3)n2)n1 [Example 40, N-Phenyl-6-[5-(1H-pyrazol-3-yl)-[1,2,4]oxadiazol-3-yl]-[1,3,5]triazine-2,4-diamine]	–	2720
CN(c1ccccc1)c1nc(N)nc(-c2noc(-c3ncccc3OCC(F)(F)F)n2)n1 [Example 42, N-Methyl-N-phenyl-6-{5-[3-(2,2,2-trifluoro-ethoxy)-pyridin-2-yl]-[1,2,4]oxadiazol-3-yl}-[1,3,5]triazine-2,4-diamine]	–	1410
Cc1cc(-c2nc(-c3nc(N)nc(N(C)c4ccccc4)n3)no2)no1 [Example 44, N-Methyl-6-[5-(5-methyl-isoxazol-3-yl)-[1,2,4]oxadiazol-3-yl]-N-phenyl-[1,3,5]triazine-2,4-diamine]	–	2720
CN(c1ccccc1)c1nc(N)nc(-c2noc(N3CCOCC3)n2)n1 [Example 45, N-Methyl-6-(5-morpholin-4-yl-[1,2,4]oxadiazol-3-yl)-N-phenyl-[1,3,5]triazine-2,4-diamine]	–	3520
COc1ccc(-c2nc(-c3nc(N)nc(N(C)c4ccccc4)n3)no2)cn1 [Example 47, 6-[5-(6-Methoxy-pyridin-3-yl)-[1,2,4]oxadiazol-3-yl]-N-methyl-N-phenyl-[1,3,5]triazine-2,4-diamine]	–	1920
Cc1cc(-c2nc(-c3nc(N)nc(N(C)c4ccccc4)n3)no2)oc1C [Example 49, 6-[5-(4,5-Dimethyl-furan-2-yl)-[1,2,4]oxadiazol-3-yl]-N-methyl-N-phenyl-[1,3,5]triazine-2,4-diamine]	–	1230
CN(c1ccccc1)c1nc(N)nc(-c2noc(-c3ncccc3N)n2)n1 [Example 51, 6-[5-(3-Amino-pyridin-2-yl)-[1,2,4]oxadiazol-3-yl]-N-methyl-N-phenyl-[1,3,5]triazine-2,4-diamine]	–	3470
CN(c1ccccc1)c1nc(N)nc(-c2noc(-c3cccnc3N)n2)n1 [Example 53, 6-[5-(2-Amino-pyridin-3-yl)-[1,2,4]oxadiazol-3-yl]-N-methyl-N-phenyl-[1,3,5]triazine-2,4-diamine]	–	703
CN(c1ccccc1)c1nc(N)nc(-c2noc(-c3ccc(N)nc3)n2)n1 [Example 55, 6-[5-(6-Amino-pyridin-3-yl)-[1,2,4]oxadiazol-3-yl]-N-methyl-N-phenyl-[1,3,5]triazine-2,4-diamine]	–	4910
CN(c1ccccc1)c1nc(N)nc(-c2noc(C3CCCCO3)n2)n1 (stereo not shown) [Example 56, N-Methyl-N-phenyl-6-[5-(tetrahydro-pyran-2-yl)-[1,2,4]oxadiazol-3-yl]-[1,3,5]triazine-2,4-diamine]	–	4580
CN(c1ccccc1)c1nc(N)nc(-c2noc(C3CCOCC3)n2)n1 [Example 57, N-Methyl-N-phenyl-6-[5-(tetrahydro-pyran-4-yl)-[1,2,4]oxadiazol-3-yl]-[1,3,5]triazine-2,4-diamine]	–	1140
Cc1cc(-c2nc(-c3nc(N)nc(N(C)c4ccccc4)n3)no2)n[nH]1 [Example 58, N-Methyl-6-[5-(5-methyl-1H-pyrazol-3-yl)-[1,2,4]oxadiazol-3-yl]-N-phenyl-[1,3,5]triazine-2,4-diamine]	–	855
CN(c1ccccc1)c1nc(N)nc(-c2noc(-c3c[nH]cn3)n2)n1 [Example 59, 6-[5-(1H-Imidazol-4-yl)-[1,2,4]oxadiazol-3-yl]-N-methyl-N-phenyl-[1,3,5]triazine-2,4-diamine]	–	8120
CN(c1ccccc1)c1nc(N)nc(-c2noc(-c3ccc[nH]3)n2)n1 [Example 60, N-Methyl-N-phenyl-6-[5-(1H-pyrrol-2-yl)-[1,2,4]oxadiazol-3-yl]-[1,3,5]triazine-2,4-diamine]	–	4910
Cc1ccc(-c2nc(-c3nc(N)nc(N(C)c4ccccc4)n3)no2)s1 [Example 62, N-Methyl-6-[5-(5-methyl-thiophen-2-yl)-[1,2,4]oxadiazol-3-yl]-N-phenyl-[1,3,5]triazine-2,4-diamine]	–	1100
CN(c1ccccc1)c1nc(N)nc(-c2noc(-c3cccc4c3OCC4)n2)n1 [Example 63, 6-[5-(2,3-Dihydro-benzofuran-7-yl)-[1,2,4]oxadiazol-3-yl]-N-methyl-N-phenyl-[1,3,5]triazine-2,4-diamine]	–	3380
CN(c1ccccc1)c1nc(N)nc(-c2noc(-c3cc4ccccc4o3)n2)n1 [Example 64, 6-(5-Benzofuran-2-yl-[1,2,4]oxadiazol-3-yl)-N-methyl-N-phenyl-[1,3,5]triazine-2,4-diamine]	–	1930
CN(c1ccccc1)c1nc(N)nc(-c2noc(-c3ncc[nH]3)n2)n1 [Example 65, 6-(5-Imidazol-2-yl-[1,2,4]oxadiazol-3-yl)-N-methyl-N-phenyl-[1,3,5]triazine-2,4-diamine]	–	5220
CN(c1ccccc1)c1nc(N)nc(-c2noc(C3CCCO3)n2)n1 (stereo not shown) [Example 66, N-Methyl-N-phenyl-6-[5-(tetrahydro-furan-2-yl)-[1,2,4]oxadiazol-3-yl]-[1,3,5]triazine-2,4-diamine]	–	1680
CN(C)CCN(c1ccccc1)c1nc(N)nc(-c2noc(-c3ccco3)n2)n1 [Example 69, N-(2-Dimethylamino-ethyl)-6-(5-furan-2-yl-[1,2,4]oxadiazol-3-yl)-N-phenyl-[1,3,5]triazine-2,4-diamine]	–	1370
Nc1nc(-c2noc(-c3ccco3)n2)nc(N(CCO)c2ccccc2)n1 [Example 70, 2-{[4-Amino-6-(5-furan-2-yl-[1,2,4]oxadiazol-3-yl)-[1,3,5]triazin-2-yl]-phenyl-amino}-ethanol]	–	1020
